Measurements: patent US20090123397A1, “Microbiocidal compositions” (Thor Specialities (UK) Limited, priority 2005, published 2009)

Assays:
Aspergillus Niger [1] = assay: Efficacy of C5 alkane diols vs. C8 alkane diols; type: cell-based; set-up: key: + = no growth inhibition; − = growth inhibition
Procedure: (§1) Tables VIIIA to VIIID—Efficacy of C5 alkane diols vs. C8 alkane diols. […] Tables VIIIA to VIIID above illustrate the results of tests of the efficacy of octane diol compared to pentane diol on various organisms. These tests were carried out in a similar manner to those described above. The percentages at the top line of each table indicate the amount of diol used by weight in the preservative mixture.

Candida albicans [2] = assay: Efficacy of C5 alkane diols vs. C8 alkane diols; type: cell-based; set-up: key: + = no growth inhibition; − = growth inhibition
Procedure: as §1

Pseudomonas aeruginosa [3] = assay: Efficacy of C5 alkane diols vs. C8 alkane diols; type: cell-based; set-up: key: + = no growth inhibition; − = growth inhibition
Procedure: as §1

Staphylococcus aureus [4] = assay: Efficacy of C5 alkane diols vs. C8 alkane diols; type: cell-based; set-up: key: + = no growth inhibition; − = growth inhibition
Procedure: as §1

Pseudomonas aeruginosa [5] = assay: MIC / growth test of MIT and CAG mixtures in Müller-Hinton broth; type: cell-based, Pseudomonas aeruginosa ATCC 9027; set-up: key to growth of the micro-organism: growth of the micro-organism took place (symbol “+”); or not (symbol “−”); conditions: 72 h
Procedure: (§2) For this purpose, aqueous mixtures were produced with various concentrations of 2-methylisothiazolin-3-one (MIT) and caprylyl glycol (CAG) and the activity of these mixtures were tested on the micro-organisms listed in Table VI.
(§3) In addition to the active component(s) and water, the aqueous mixtures contained a nutrient medium, namely a Müller-Hinton broth (Manufacturer: Oxoid; product code CM405). The incubation time was 72 h at 25° C. (bacterial and yeast) or 7 days at 25° C. (mould). Each sample was incubated on an incubation shaker at 105 rpm.
(§4) The tables also show whether growth of the micro-organism took place (symbol “+”) or not (symbol “−”).
(§5) Tables I to V also show the minimum inhibition concentrations (MIC).
(§6) The synergy index is calculated according to the method of F. C. Kull et al., Applied Microbiology, Vol. 9 (1961), p. 538. Here the synergy index is calculated using the following formula:
(§7) Synergy index=Qa/QA+Qb/QB
(§8) When this formula is used on the biocide system tested here, the quantities in the formula have the following meaning: • Qa=MIC of MIT in the preservative mixture of MIT and CAG • QA=MIC of MIT as sole ingredient • Qb=MIC of CAG in the preservative mixture of MIT and CAG • QB=MIC of CAG as sole ingredient
(§9) When the synergy index has the value 1, this means that there is an addition of the activity of the two ingredients. When the synergy index has a value of less than 1, this means that a synergy of the two ingredients exists.

Staphylococcus aureus [6] = assay: as above; type: cell-based, Staphylococcus aureus ATCC 6538; set-up: key to growth of the micro-organism: growth of the micro-organism took place (symbol “+”); or not (symbol “−”); conditions: 72 h
Procedure: as §2, §3, §4, §5, §6, §7, §8, §9

Enterococcus faecalis = assay: as above; type: cell-based, Enterococcus faecalis NCIMB 12756; set-up: key to growth of the micro-organism: growth of the micro-organism took place (symbol “+”); or not (symbol “−”); conditions: 72 h
Procedure: as §2, §3, §4, §5, §6, §7, §8, §9

Aspergillus niger [7] = assay: as above; type: cell-based, Aspergillus niger IMI 149007; set-up: key to growth of the micro-organism: growth of the micro-organism took place (symbol “+”); or not (symbol “−”); conditions: 5 days
Procedure: as §2
In addition to the active component(s) and water, the aqueous mixtures contained a nutrient medium, namely a Müller-Hinton broth (Manufacturer: Oxoid; product code CM405). […] (mould). Each sample was incubated on an incubation shaker at 105 rpm.
as §4, §5, §6, §7, §8, §9

Candida albicans [8] = assay: as above; type: cell-based, Candida albicans NCPF 3179; set-up: key to growth of the micro-organism: growth of the micro-organism took place (symbol “+”); or not (symbol “−”); conditions: 72 h
Procedure: as §2, §3, §4, §5, §6, §7, §8, §9

CCCC(O)CO (stereo not drawn) [1,2 Pentane diol, reference compound]
+: growth inhibition (Aspergillus Niger [1]; diol 0.2% by weight) | growth inhibition (Aspergillus Niger [1]; diol 0.4% by weight) | growth inhibition (Aspergillus Niger [1]; diol 0.6% by weight) | growth inhibition (Aspergillus Niger [1]; diol 0.8% by weight) | growth inhibition (Aspergillus Niger [1]; diol 1.0% by weight) | growth inhibition (Candida albicans [2]; diol 0.2% by weight) | growth inhibition (Candida albicans [2]; diol 0.4% by weight) | growth inhibition (Candida albicans [2]; diol 0.6% by weight) | growth inhibition (Candida albicans [2]; diol 0.8% by weight) | growth inhibition (Candida albicans [2]; diol 1.0% by weight) | growth inhibition (Pseudomonas aeruginosa [3]; diol 0.2% by weight) | growth inhibition (Pseudomonas aeruginosa [3]; diol 0.4% by weight) | growth inhibition (Pseudomonas aeruginosa [3]; diol 0.6% by weight) | growth inhibition (Pseudomonas aeruginosa [3]; diol 0.8% by weight) | growth inhibition (Pseudomonas aeruginosa [3]; diol 1.0% by weight) | growth inhibition (Staphylococcus aureus [4]; diol 0.2% by weight) | growth inhibition (Staphylococcus aureus [4]; diol 0.4% by weight) | growth inhibition (Staphylococcus aureus [4]; diol 0.6% by weight) | growth inhibition (Staphylococcus aureus [4]; diol 0.8% by weight) | growth inhibition (Staphylococcus aureus [4]; diol 1.0% by weight)

CCCCCCC(O)CO (stereo not drawn) [1,2-Octane diol]
+: growth inhibition (Candida albicans [2]; diol 0.2% by weight) | growth inhibition (Pseudomonas aeruginosa [3]; diol 0.2% by weight)
−: growth inhibition (Aspergillus Niger [1]; diol 0.2% by weight) | growth inhibition (Aspergillus Niger [1]; diol 0.4% by weight) | growth inhibition (Aspergillus Niger [1]; diol 0.6% by weight) | growth inhibition (Aspergillus Niger [1]; diol 0.8% by weight) | growth inhibition (Aspergillus Niger [1]; diol 1.0% by weight) | growth inhibition (Candida albicans [2]; diol 0.4% by weight) | growth inhibition (Candida albicans [2]; diol 0.6% by weight) | growth inhibition (Candida albicans [2]; diol 0.8% by weight) | growth inhibition (Candida albicans [2]; diol 1.0% by weight) | growth inhibition (Pseudomonas aeruginosa [3]; diol 0.4% by weight) | growth inhibition (Pseudomonas aeruginosa [3]; diol 0.6% by weight) | growth inhibition (Pseudomonas aeruginosa [3]; diol 0.8% by weight) | growth inhibition (Pseudomonas aeruginosa [3]; diol 1.0% by weight) | growth inhibition (Staphylococcus aureus [4]; diol 0.2% by weight) | growth inhibition (Staphylococcus aureus [4]; diol 0.4% by weight) | growth inhibition (Staphylococcus aureus [4]; diol 0.6% by weight) | growth inhibition (Staphylococcus aureus [4]; diol 0.8% by weight) | growth inhibition (Staphylococcus aureus [4]; diol 1.0% by weight)

CCCCCCC(O)CO (stereo not drawn) [CAG, caprylyl glycol]
1000 ppm: QB (CAG): MIC of CAG as sole ingredient (Staphylococcus aureus [6])
4000 ppm: QB (CAG): MIC of CAG as sole ingredient (Pseudomonas aeruginosa [5])
+: growth of the micro-organism (Pseudomonas aeruginosa [5]; MIT 0 ppm, CAG 500 ppm) | growth of the micro-organism (Pseudomonas aeruginosa [5]; MIT 0 ppm, CAG 1000 ppm) | growth of the micro-organism (Pseudomonas aeruginosa [5]; MIT 0 ppm, CAG 2000 ppm) | growth of the micro-organism (Pseudomonas aeruginosa [5]; MIT 0 ppm, CAG 3000 ppm) | growth of the micro-organism (Staphylococcus aureus [6]; MIT 0 ppm, CAG 500 ppm) | growth of the micro-organism (Enterococcus faecalis; MIT 0 ppm, CAG 500 ppm) | growth of the micro-organism (Enterococcus faecalis; MIT 0 ppm, CAG 1000 ppm) | growth of the micro-organism (Aspergillus niger [7]; MIT 0 ppm, CAG 500 ppm) | growth of the micro-organism (Aspergillus niger [7]; MIT 0 ppm, CAG 1000 ppm) | growth of the micro-organism (Candida albicans [8]; MIT 0 ppm, CAG 500 ppm) | growth of the micro-organism (Candida albicans [8]; MIT 0 ppm, CAG 1000 ppm) | growth of the micro-organism (Candida albicans [8]; MIT 0 ppm, CAG 2000 ppm)
−: growth of the micro-organism (Pseudomonas aeruginosa [5]; MIT 0 ppm, CAG 4000 ppm) | growth of the micro-organism (Staphylococcus aureus [6]; MIT 0 ppm, CAG 1000 ppm) | growth of the micro-organism (Staphylococcus aureus [6]; MIT 0 ppm, CAG 2000 ppm) | growth of the micro-organism (Staphylococcus aureus [6]; MIT 0 ppm, CAG 3000 ppm) | growth of the micro-organism (Staphylococcus aureus [6]; MIT 0 ppm, CAG 4000 ppm) | growth of the micro-organism (Enterococcus faecalis; MIT 0 ppm, CAG 2000 ppm) | growth of the micro-organism (Enterococcus faecalis; MIT 0 ppm, CAG 3000 ppm) | growth of the micro-organism (Enterococcus faecalis; MIT 0 ppm, CAG 4000 ppm) | growth of the micro-organism (Aspergillus niger [7]; MIT 0 ppm, CAG 2000 ppm) | growth of the micro-organism (Aspergillus niger [7]; MIT 0 ppm, CAG 3000 ppm) | growth of the micro-organism (Aspergillus niger [7]; MIT 0 ppm, CAG 4000 ppm) | growth of the micro-organism (Candida albicans [8]; MIT 0 ppm, CAG 3000 ppm) | growth of the micro-organism (Candida albicans [8]; MIT 0 ppm, CAG 4000 ppm)
2000 ppm: QB (CAG): MIC of CAG as sole ingredient (Enterococcus faecalis) | QB (CAG): MIC of CAG as sole ingredient (Aspergillus niger [7])
3000 ppm: QB (CAG): MIC of CAG as sole ingredient (Candida albicans [8])

Cn1sccc1=O [MIT, 2-methylisothiazolin-3-one]
75 ppm: QA (MIT): MIC of MIT as sole ingredient (Enterococcus faecalis)
300 ppm: QA (MIT): MIC of MIT as sole ingredient (Aspergillus niger [7])
−: growth of the micro-organism (Pseudomonas aeruginosa [5]; MIT 25 ppm, CAG 0 ppm) | growth of the micro-organism (Pseudomonas aeruginosa [5]; MIT 37.5 ppm, CAG 0 ppm) | growth of the micro-organism (Pseudomonas aeruginosa [5]; MIT 50 ppm, CAG 0 ppm) | growth of the micro-organism (Pseudomonas aeruginosa [5]; MIT 75 ppm, CAG 0 ppm) | growth of the micro-organism (Staphylococcus aureus [6]; MIT 25 ppm, CAG 0 ppm) | growth of the micro-organism (Staphylococcus aureus [6]; MIT 37.5 ppm, CAG 0 ppm) | growth of the micro-organism (Staphylococcus aureus [6]; MIT 50 ppm, CAG 0 ppm) | growth of the micro-organism (Staphylococcus aureus [6]; MIT 75 ppm, CAG 0 ppm) | growth of the micro-organism (Enterococcus faecalis; MIT 75 ppm, CAG 0 ppm) | growth of the micro-organism (Aspergillus niger [7]; MIT 300 ppm, CAG 0 ppm) | growth of the micro-organism (Candida albicans [8]; MIT 200 ppm, CAG 0 ppm)
25 ppm: QA (MIT): MIC of MIT as sole ingredient (Pseudomonas aeruginosa [5]) | QA (MIT): MIC of MIT as sole ingredient (Staphylococcus aureus [6])
200 ppm: QA (MIT): MIC of MIT as sole ingredient (Candida albicans [8])
+: growth of the micro-organism (Pseudomonas aeruginosa [5]; MIT 10 ppm, CAG 0 ppm) | growth of the micro-organism (Staphylococcus aureus [6]; MIT 10 ppm, CAG 0 ppm) | growth of the micro-organism (Enterococcus faecalis; MIT 10 ppm, CAG 0 ppm) | growth of the micro-organism (Enterococcus faecalis; MIT 25 ppm, CAG 0 ppm) | growth of the micro-organism (Enterococcus faecalis; MIT 37.5 ppm, CAG 0 ppm) | growth of the micro-organism (Enterococcus faecalis; MIT 50 ppm, CAG 0 ppm) | growth of the micro-organism (Aspergillus niger [7]; MIT 10 ppm, CAG 0 ppm) | growth of the micro-organism (Aspergillus niger [7]; MIT 25 ppm, CAG 0 ppm) | growth of the micro-organism (Aspergillus niger [7]; MIT 37.5 ppm, CAG 0 ppm) | growth of the micro-organism (Aspergillus niger [7]; MIT 50 ppm, CAG 0 ppm) | growth of the micro-organism (Aspergillus niger [7]; MIT 75 ppm, CAG 0 ppm) | growth of the micro-organism (Aspergillus niger [7]; MIT 100 ppm, CAG 0 ppm) | growth of the micro-organism (Aspergillus niger [7]; MIT 200 ppm, CAG 0 ppm) | growth of the micro-organism (Candida albicans [8]; MIT 10 ppm, CAG 0 ppm) | growth of the micro-organism (Candida albicans [8]; MIT 25 ppm, CAG 0 ppm) | growth of the micro-organism (Candida albicans [8]; MIT 37.5 ppm, CAG 0 ppm) | growth of the micro-organism (Candida albicans [8]; MIT 50 ppm, CAG 0 ppm) | growth of the micro-organism (Candida albicans [8]; MIT 75 ppm, CAG 0 ppm) | growth of the micro-organism (Candida albicans [8]; MIT 100 ppm, CAG 0 ppm)
